For one test, the system named is E. coli ATCC 25922. Kind of test: Antibiotic enhancement of erythromycin. The format is cell-based. The protocol:
[Worded in the source for another target; used here, by the source, with some conditions changed.] Antibiotic restoring enhancer concentrations were determined using reported protocols (see Supplementary File).
Briefly, restoring enhancer concentrations were determined with an inoculum of 5x10^5 CFU in 200 µL of MHB containing two-fold serial dilutions of each derivative in the presence of doxycycline at 4.5 […]
The lowest concentration of the polyamine
These measurements were independently repeated in triplicate.
Outer membrane permeabilization was measured using nitrocefin as a chromogenic substrate of periplasmic β-lactamase. Ten milliliters of MH broth were inoculated with 0.1 mL of an overnight culture of PAO1 bacteria and grown at 37°C until the OD600 reached 0.5. The remaining steps were performed at room temperature. Cells were recovered by centrifugation (4000 rpm for 20 min) and washed once in 20 mM potassium phosphate buffer (pH 7.2) containing MgCl2 (1 mM). After a second centrifugation, the pellet was resuspended and adjusted to OD600 of 0.5. Then, 50 µL of the desired compound was added to 100 µL of the cell suspension to obtain a final concentration varying from 3.9 µM to 250 µM. Fifty microliters of nitrocefin were then added to obtain a final concentration of 50 µg/mL. Nitrocefin hydrolysis was monitored spectrophotometrically by measuring the increase in absorbance at 490 nm. Assays were performed in 96-well plates using a M200 Pro Tecan […]
HEK293 cells were counted manually in a Neubauer hemocytometer and plated at a density of 5,000 cells/well into each well of the 384-well plates containing the 25x (2 µL) concentrated compounds [26,27]. The medium used was Dulbecco's modified Eagle’s medium (DMEM), supplemented with 10% fetal bovine serum (FBS). Cells were incubated together with the compounds for 20 h at 37 °C, 5% CO2.
To measure cytotoxicity, 5 µL (equals 100 µM final) of resazurin was added to each well after incubation and incubated for further 3 h at 37 °C with 5% CO2. After the final incubation, fluorescence intensity […]
reader. CC50 values (concentration at 50% cytotoxicity) were calculated by normalizing the fluorescence readout, with 74 µg/mL tamoxifen as negative control (0%) and normal cell growth as positive control (100%). The concentration-dependent percentage cytotoxicity was fitted to a dose–response function (using Pipeline Pilot) and CC50 values were determined.
Human whole blood was washed three times with three volumes of 0.9% NaCl and then resuspended in the same solution to a concentration of 0.5 x 10^8 cells/mL, as determined by the manual cell count in a Neubauer hemocytometer. The washed cells were then added to the 384-well compound-containing plates for a final volume of 50 µL. After a 10 min shake on a plate shaker, the plates were then incubated for 1 h at 37 °C. After incubation, the plates were centrifuged at 1,000g for 10 min to pellet cells and debris; 25 µL of the supernatant was then transferred to a polystyrene 384-well assay plate. Hemolysis was determined by measuring the supernatant absorbance at […] (OD405). The absorbance was measured using a Tecan M1000 Pro monochromator plate reader. HC10 and HC50 (concentration at 10% and 50% hemolysis, respectively) were calculated by curve fitting the inhibition values vs. log (concentration) using a sigmoidal dose–response function with variable fitting values for the top, bottom, and slope.
2.8. Real-time growth curves
Solutions of the compound at concentrations of 2, 4, and 16 µg/mL were tested each in triplicate against S. aureus ATCC 25923 [26]. Typically, in a 96-well plate were placed 10 µL of 40, 80, and 320 µg/mL stock solutions of compound, as well as 190 µL of a 5 x 10^5 CFU/mL of the selected bacterial suspension in brain heart infusion (BHI) broth. Positive controls containing only 200 µL of a 5 x 10^5 CFU/mL of bacterial suspension in BHI and negative controls containing only 200 µL of BHI broth were added. The plate was incubated at 37°C in a TECAN Spark Reader (Roche Diagnostic) and real-time […]

In test [1] the test system is C. neoformans ATCC 208821. Kind of test: MIC, CO-ADD antifungal assay, C. neoformans. It counts as cell-based, Cryptococcus neoformans. The conditions noted are these: Cryptococcus neoformans, ATCC208821, mean (n = 2). The protocol: (§1) The susceptibility of bacterial strains S. aureus (ATCC 25923), E. coli (ATCC 25922), and P. aeruginosa (ATCC 27853 or PAO1) to antibiotics and compounds was determined using reported protocols. Additional antimicrobial evaluation against MRSA (ATCC 43300), Klebsiella pneumoniae (ATCC 700603), A. baumannii (ATCC 19606), Candida albicans (ATCC 90028), and Cryptococcus neoformans (ATCC 208821) was undertaken at the Community for Open Antimicrobial Drug Discovery at The University of Queensland (Australia) according to their standard protocols as reported previously. […]
(§2) 2.3. Antimicrobial Assays
(§3) The susceptibility of bacterial strains S. aureus (ATCC 25923), E. coli (ATCC 25922), and P. […]
(§4) baumannii (ATCC 19606), Candida albicans (ATCC 90028), and Cryptococcus neoformans (ATCC 208821) was undertaken at the Community for Open Antimicrobial Drug Discovery at The University of Queensland (Australia) according to their standard protocols as reported previously. […]
(§5) For the antifungal assay, fungi strains were cultured for 3 days on YPD agar at 30 °C. A yeast suspension of 1 × 106 to 5 × 10^6 CFU/mL was prepared from five colonies. These stock suspensions were diluted with yeast nitrogen base (YNB) (Becton Dickinson, 233520) broth to a final concentration of 2.5 × 10^3 CFU/mL. The compounds were serially diluted 2-fold across the wells of 96-well plates (Corning 3641, non-binding surface), with compound concentrations ranging from 0.015 to 64 µg/mL and final volumes of 50 µL, plated in duplicate. Then, 50 µL of the fungi suspension that was previously prepared in YNB broth to the final concentration of 2.5 × 10^3 CFU/mL was added to each well of the compound-containing plates, giving a final compound concentration range of 0.008 to 32 µg/mL. Plates were covered and incubated at 35 °C for 36 h without shaking. C. albicans MICs were determined by measuring the absorbance at OD530. For C. neoformans, resazurin was added at 0.006% final concentration to each well and incubated for a further 3 h before MICs were determined by measuring […]
(§6) Colistin and vancomycin were used as positive bacterial inhibitor standards for Gram-negative and Gram-positive bacteria, respectively. Fluconazole was used as a positive fungal inhibitor standard for C. albicans and C. neoformans. The antibiotics were provided in […], with 3 above and 3 below its MIC value, and plated into the first 8 wells of column 23 of the 384-well NBS plates. The quality control (QC) of the assays was determined by the antimicrobial controls and the Z'-factor (using positive and negative controls). Each plate was deemed to fulfil the quality criteria (pass QC) if the Z'- […]
(§7) inhibition at their highest concentration, and no growth inhibition at their lowest concentration.
(§8) 2.4. Determination of the MICs of Antibiotics in the Presence of Synergizing Compounds

The next test has as its system C. albicans ATCC 90028. Kind of test: MIC, CO-ADD antifungal assay, C. albicans. The format is cell-based, Candida albicans. Conditions: Candida albicans, ATCC90028, mean (n = 2). The protocol: as §1, §2, §3, §4, §5, §6, §7, §8

A value given as a limit tells only on which side of the number the result lay.

The MIC is the lowest concentration found to suppress growth.

In the case of `C=C[C@]1(C)C[C@@H](OC(=O)CNCCCNCCCCCCCCCCCCNCCCNCC(=O)O[C@@H]2C[C@@](C)(C=C)[C@@H](O)[C@H](C)[C@]34CCC(=O)[C@H]3[C@@]2(C)[C@H](C)CC4)[C@]2(C)[C@H](C)CC[C@]3(CCC(=O)[C@H]32)[C@@H](C)[C@@H]1O.O=C(O)C(F)(F)F.O=C(O)C(F)(F)F.O=C(O)C(F)(F)F.O=C(O)C(F)(F)F` [Compound 9f, N^1,N^1′-(Dodecane-1,12-diyl)bis(N^3-(2-(((3aR,4R,5R,7S,8S,9R,9aS,12R)-8-hydroxy-4,7,9,12-tetramethyl-3-oxo-7-vinyldecahydro-4,9a-propanocyclopenta [8]annulen-5-yl)oxy)-2-oxoethyl)propane-1,3-diaminium) 2,2,2-trifluoroacetate], in the test on E. coli ATCC 25922 (erythromycin at 2.7 µM), the “Erythro/E.c.: fold change, ratio between intrinsic MIC of test compound and combination MIC” value worked out at 0.5. Also, in the test with E. coli ATCC 25922 (erythromycin at 2.7 µM (2 µg/mL)), the “Erythro/E.c.: concentration required to restore erythromycin activity” value came to 8.38 µM. The figures for the MIC (in test [1]; in the test with C. albicans ATCC 90028) were at most 0.17 µM and 21.5 µM, respectively.

Values taken from publication PMC10673369, “Preliminary SAR of Novel Pleuromutilin–Polyamine Conjugates” (Microorganisms, 2023).
